The record followed here is US9365830B2, “Agents and methods for inhibiting human pluripotent stem cell growth” (VIACYTE, INC., priority 2010, dated 2016).

Structures can show the parent of a compound that is named as a salt. Where two headings read alike, the source gives them in different places. Where only a bound is given, the exact number is not on record here.

Holding throughout (type): cell-based, human
Experiment [1] deals with NPCs. As to the kind of experiment: Secondary screen, lowest effective dose on NPCs. As to conditions: lowest concentration that elicited cytotoxicity, range 0.1 to 50 μM, read-out: ED NPC (lowest effective dose). Here is the method:
In addition, the complete LOPAC1280™ collection was also screened for effects on neural progenitor cells (NPCs) that were derived from the hESCs. Neural progenitors were plated in serum-free MedII conditioned medium at 6×10^4 cells/well and fed daily. Two days after plating, 10 μM of each compound was added and the cells were cultured for an additional 2 days. […] Reduced crystal violet staining was indicative of lower proportions of NPCs. See circled wells in FIG. 7B. The left and right columns of the LOPAC1280™ plates from which the compounds were dispensed were empty and served as untreated controls. […] See Table 6 below listing the name and class of activity of each candidate compound identified in this screen (except chelerythrine chloride, which is listed in Table 5). ChCl was not included in the subsequent round of screening. Therefore only 40 compounds were tested further.
(§1) Using a range of different concentrations from 0.1 to 50 μM, the forty compounds in Table 6 were re-screened (secondary screen) using hESCS and NPCs. The effective dose (ED) was defined as the lowest concentration of a compound that elicited cytotoxicity during the secondary screen. […] The darker wells were indicative of the increased numbers or percentages of proliferating or growing pluripotent stem cells in the wells. In addition, these 40 compounds were screened on differentiating definitive endoderm (DE) cell cultures in 96-well plate impedance assays (described above) to determine which of these compounds were not cytotoxic to definitive endoderm cells at the lowest effective dose on either hESC or NPC. […] See “ACEA DE” column in Table 6.

In experiment [2] the test system is hESCs. Put plainly: Secondary screen, lowest effective dose on hESCs. As to conditions: lowest concentration that elicited cytotoxicity, range 0.1 to 50 μM, read-out: ED hESC (lowest effective dose). On the procedure:
To expand the number of potential candidate hESC cytotoxic and inhibitory compounds, the complete LOPAC1280™ collection (containing 1,280 compounds) was screened. In the primary screen, cytotoxicity was tested on undifferentiated hESCs (about 3×10^4 BG01 cells) in 16 standard 96-well trays, in DC-HAIF defined medium on growth factor-reduced MATRIGEL™ diluted 1:200, which were fed daily (FIG. 7A). 10 μM of each compound was added to the hESCs one day after plating, and the cells were cultured for an additional 2 days. Plates were then fixed and stained for alkaline phosphatase (AP) to identify relative decreases in proliferation or growth of hESCs (as reduced AP staining), indicative of lower proportions of hESCs. See the circled wells in FIG. 7A.
as §1

The subject of experiment [3] is differentiating definitive endoderm (DE) cell cultures. Put plainly: 96-well plate impedance assay (ACEA) on differentiating definitive endoderm at lowest effective dose. As to conditions: at the lowest effective dose on either hESC or NPC. More on the design: key: Viable: Compounds that did not appear to be cytotoxic toward differentiating DE cultures were marked as “viable”, meaning that the compound did not affect the survival, growth, proliferation or differentiation of the differentiated cells.
Source text: The impedance assay on the hESCs using the compounds in Table 4 above gave greater than twenty (20) hits. However, the ideal candidate compound of the present invention should not only be inhibitory or cytotoxic to human pluripotent stem cells, such as hESCs or hIPSCs, but should at the same time have no effect on cell viability of differentiated or differentiating cell populations including Stage 1, 2, 3, 4 and 5 type cells cultures (definitive endoderm, foregut endoderm, posterior foregut, pancreatic endoderm and endocrine cells, respectively). […] Approximately 3×10^4 hES cells were plated per well and grown for 24 hrs in DC-HAIF defined medium (i.e. StemPro® hESC SFM medium (Life Technologies, Carlsbad, Calif.). Stage 1 or definitive endoderm differentiation was then induced by changing the medium and culturing in RPMI, 100 ng/mL Activin A, and 10 ng/mL of FGF2. […] of GSK-3 beta Inhibitor 15 (Calbiochem #361558) as added to the culture for the first 24 hours of differentiation only. 10 μM of each of the candidate compounds were added about 48 hours or 2 days after differentiation was induced (see FIGS. 3 C & D, large arrowhead), and the cells were cultured for an additional 2 days.
as §1

For `COc1cc2c(cc1O)CC[C@@H]1[C@@H]2CC[C@]2(C)[C@@H](O)CC[C@@H]12` [2-methoxyestradiol], the figures for the minimal effective concentration in experiment [1] and in experiment [2] were 1 µM and 10 µM, respectively.

Turning to `Oc1cc(-c2ccccc2)nc2nc(Cl)ccc12` [7-Chloro-4-hydroxy-2-phenyl-1,8-naphthyridine], the minimal effective concentration in experiment [1] (Homo sapiens, 48 h) is 5 µM; in experiment [2] (Homo sapiens) it was 5 µM. The “ACEA DE” value in experiment [3] is “Viable”.

`CC[n+]1c(/C=C/C=C2/N(C)c3ccccc3C2(C)C)sc2ccccc21.[I-]` [AC-93253 iodide]: the minimal effective concentration in experiment [1] is on record as less than 0.1 µM; in experiment [2], 5 µM.

For `N` [Ammonium], the minimal effective concentration in experiment [1] is given as greater than 50 µM; in experiment [2] it was 10 µM. Besides, in experiment [3], the “ACEA DE” value is “Viable”.

With `COc1cc(NS(C)(=O)=O)ccc1Nc1c2ccccc2nc2ccccc12` [Amsacrine hydrochloride], the minimal effective concentration in experiment [1] (Homo sapiens, 48 h) was found to be 0.1 µM; in experiment [2] (Homo sapiens), 1 µM.

As to `C[C@H]1CCC/C=C/[C@@H]2C[C@H](O)C[C@H]2[C@H](O)/C=C/C(=O)O1` [Brefeldin A from Penicillium], the minimal effective concentration in experiment [1] and in experiment [2] was less than 0.1 µM each time.

For `O=C(/C=C/c1ccc(O)c(O)c1)OCCc1ccccc1` [Caffeic acid phenethyl ester], the minimal effective concentration in experiment [1] (Homo sapiens, 48 h) was 5 µM; in experiment [2] (Homo sapiens), less than 0.1 µM. Besides, the “ACEA DE” value in experiment [3] is listed as “Viable”.

`CNc1ccc2oc(C[C@H]3O[C@@]4(CC[C@H]3C)O[C@H]([C@H](C)C(=O)c3ccc[nH]3)[C@H](C)C[C@H]4C)nc2c1C(=O)O` [Calcimycin]: the minimal effective concentration in experiment [1] (Homo sapiens, 48 h) is less than 0.1 µM; in experiment [2] (Homo sapiens) it was 1 µM.

With `Clc1ccc(C(c2ccc(Cl)cc2)n2cc[n+](CC(OCc3ccc(Cl)cc3Cl)c3ccc(Cl)cc3Cl)c2)cc1` (stereo not drawn) [Calmidazolium chloride], the minimal effective concentration is 5 µM in experiment [1] (Homo sapiens, 48 h) and 5 µM in experiment [2] (Homo sapiens). The “ACEA DE” value in experiment [3] is recorded as “Viable”.

On to `Oc1cc2c(cc1O)CN(C(=S)NCCc1ccc(Cl)cc1)CCC2` [Capsazepine], for which the minimal effective concentration was determined as 25 µM in experiment [1] (Homo sapiens, 48 h) and 5 µM in experiment [2] (Homo sapiens). Moreover, in experiment [3], the “ACEA DE” value is “Viable”.

On to `Cc1cc(N)c2ccccc2[n+]1CCCCCCCCCC[n+]1c(C)cc(N)c2ccccc21` [Dequalinium chloride hydrate], for which the minimal effective concentration in experiment [1] (Homo sapiens, 48 h) was found to be 5 µM; in experiment [2] (Homo sapiens), 5 µM.

`C[C@@H]1O[C@@H](O[C@H]2C[C@@H](O)[C@]3(CO)[C@H]4[C@H](O)C[C@]5(C)[C@@H]([C@@H]6COC(=O)C6)CC[C@]5(O)[C@@H]4CC[C@]3(O)C2)[C@H](O)[C@H](O)[C@H]1O` [Dihydroouabain]: the minimal effective concentration is on record as less than 0.1 µM in experiment [1] and 1 µM in experiment [2].

Consider `c1ccc2c(c1)[I+]c1ccccc1-2` [Diphenyleneiodonium chloride], for which the minimal effective concentration in experiment [1] (Homo sapiens, 48 h) is less than 0.1 µM; in experiment [2] (Homo sapiens) it was 0.1 µM.

For the compound `O=c1[nH]c2ccccc2n1CCCN1CCC(n2c(=O)[nH]c3cc(Cl)ccc32)CC1` [Domperidone], the minimal effective concentration in experiment [1] (Homo sapiens, 48 h) came out at 0.1 µM; in experiment [2] (Homo sapiens), 25 µM. In addition, the “ACEA DE” value in experiment [3] is recorded as “Viable”.

On to `CC[C@H]1CN2CCc3cc(OC)c(OC)cc3[C@@H]2C[C@@H]1C[C@H]1NCCc2cc(OC)c(OC)cc21` [Emetine dihydrochloride hydrate], for which the minimal effective concentration is 0.1 µM in experiment [1] (Homo sapiens, 48 h) and less than 0.1 µM in experiment [2] (Homo sapiens).

Consider `CNC(=O)[C@H]1O[C@@H](n2cnc3c(NCc4cccc(I)c4)ncnc32)[C@H](O)[C@@H]1O` [IB-MECA], for which the minimal effective concentration in experiment [1] is reported as greater than 50 µM; in experiment [2], 50 µM.

Turning to `Ic1ccccc1CNC1C2CCN(CC2)C1C(c1ccccc1)c1ccccc1.O=C(O)C(=O)O` [L-703,606 oxalate], the minimal effective concentration in experiment [1] was greater than 50 µM; in experiment [2] it was 25 µM.

Take `COC(=O)C1=C(C)NC(C)=C(C(=O)OC(C)(C)CN(C)CCC(c2ccccc2)c2ccccc2)C1c1cccc([N+](=O)[O-])c1` (stereo not drawn) [Lercanidipine hydrochloride]: the minimal effective concentration in experiment [1] (Homo sapiens, 48 h) turned out to be 10 µM; in experiment [2] (Homo sapiens) it was 10 µM.

For `CC[N+](CC)(CC)CCOc1ccc(/C=C/c2ccccc2)cc1` [MG 624], the minimal effective concentration turned out to be 5 µM in experiment [1] (Homo sapiens, 48 h) and 0.1 µM in experiment [2] (Homo sapiens). Further, the “ACEA DE” value in experiment [3] is reported as “Viable”.

For the compound `COCC(=O)O[C@]1(CCN(C)CCCc2nc3ccccc3[nH]2)CCc2cc(F)ccc2[C@@H]1C(C)C` [Mibefradil dihydrochloride], the minimal effective concentration in experiment [1] (Homo sapiens, 48 h) came out at 25 µM; in experiment [2] (Homo sapiens), 25 µM.

Regarding `CCCCCCCC/C=C\CCCCCCCC(=O)NCCc1ccc(O)c(O)c1` [N-Oleoyldopamine], the minimal effective concentration in experiment [1] (Homo sapiens, 48 h) amounted to 1 µM; in experiment [2] (Homo sapiens), 5 µM. Moreover, the “ACEA DE” value in experiment [3] is on record as “Viable”.

On to `CC(C)[C@H]1c2ccc(F)cc2CC[C@@]1(CCN(C)CCCc1nc2ccccc2[nH]1)OC(=O)C1CC1` [NNC 55-0396], for which the minimal effective concentration is given as 5 µM in experiment [1] and 25 µM in experiment [2].

For `C[C@@H]1O[C@@H](O[C@H]2C[C@@H](O)[C@]3(CO)[C@H]4[C@H](O)C[C@]5(C)[C@@H](C6=CC(=O)OC6)CC[C@]5(O)[C@@H]4CC[C@]3(O)C2)[C@H](O)[C@H](O)[C@H]1O` [Ouabain], the minimal effective concentration in experiment [1] (Homo sapiens, 48 h) is less than 0.1 µM; in experiment [2] (Homo sapiens) it was less than 0.1 µM.

For the compound `Nc1ccc(CCN2CCN(c3cccc(C(F)(F)F)c3)CC2)cc1` [PAPP], the minimal effective concentration in experiment [1] is on record as greater than 50 µM; in experiment [2], 25 µM.

In the case of `N=C(N)c1ccc(OCCCCCOc2ccc(C(=N)N)cc2)cc1` [Pentamidine isethionate], the minimal effective concentration was 25 µM in experiment [1] (Homo sapiens, 48 h) and 1 µM in experiment [2] (Homo sapiens). Further, the “ACEA DE” value in experiment [3] is given as “Viable”.

For `COc1cc([C@@H]2c3cc4c(cc3[C@H](O)[C@H]3COC(=O)[C@H]23)OCO4)cc(OC)c1OC` [Podophyllotoxin], the “ACEA DE” value in experiment [3] was “Viable”. Besides, in experiment [2] (Homo sapiens), the minimal effective concentration was less than 0.1 µM.

Regarding `C=CC1=C(C)c2cc3[nH]c(cc4nc(cc5[nH]c(cc1n2)c(C)c5CCC(=O)O)C(CCC(=O)O)=C4C)c(C)c3C=C` [Protoporphyrin IX disodium], the minimal effective concentration was greater than 50 µM in experiment [1] (Homo sapiens, 48 h) and 10 µM in experiment [2] (Homo sapiens). Also, the “ACEA DE” value in experiment [3] is recorded as “Viable”.

`Cc1nc(-c2ccc(-c3ccc(C(=O)N4CCc5cc6c(cc54)C4(CCN(C)CC4)CO6)cc3)c(C)c2)no1` [SB 224289 hydrochloride]: the minimal effective concentration in experiment [1] (Homo sapiens, 48 h) turned out to be 50 µM; in experiment [2] (Homo sapiens), 25 µM.

Regarding `CC(C)(C)c1ccc(C(O)CCCN2CCC(C(O)(c3ccccc3)c3ccccc3)CC2)cc1` (stereo not drawn) [Terfenadine], the minimal effective concentration amounted to 10 µM in experiment [1] (Homo sapiens, 48 h) and 25 µM in experiment [2] (Homo sapiens).

On to `CC1(C)CCC2=C(O1)c1ccccc1C(=O)C2=O` [beta-Lapachone], for which the minimal effective concentration in experiment [1] (Homo sapiens, 48 h) came out at 5 µM; in experiment [2] (Homo sapiens), 5 µM.

Turning to Vinblastine sulfate salt, the minimal effective concentration in experiment [1] and in experiment [2] was less than 0.1 µM throughout.
